From patent US8334253B2, “Cosmetic and dermatological formulations of MNTF peptides” (Dermacare Neuroscience Institute, priority 2008, dated 2012)
Peptide text beside a SMILES is read from it. * marks the point of attachment. Palmitoyl = CCCCCCCCCCCCCCCC(=O)*

System: gamma interferon-induced NO production in epidermal keratinocytes
Assay: Inhibition of gamma interferon-induced nitric oxide production in keratinocytes (Griess reaction)
Format: cell-based
Conditions: keratinocytes, 48 hours, gamma-interferon 300 U/ml
Description: The study method chosen is similar to that published in the reference Tsai et al. (Tsai et al, Inhibition of inflammatory nitric oxide production and epidermis damages by Saccharomycopsis Ferment Filtrate. J Dermatol Sci 2006 June 42 (3): 249-57. Laskin, Multifunctional Role of Nitric Oxide in Inflammation, Trends Endocrinol Metab 1994; 5:377-382. Lyons, Emerging Roiles of Nitric Oxide in Inflammation, Hospital Practice, Jul. 15, 1996: 69-86.)
The objective of the study was to investigate the inhibition effect of Pal-hexapeptide (SEQ ID NO: 2, in palmitylated form) on gamma interferon-induced NO production in epidermal keratinocytes in culture.
Anti-inflammatory effect was observed as a reduction of nitric oxide production in keratinocytes. Keratinocytes were incubated 48 hours with gamma-interferon (300 U/ml) alone (as control) or with gamma-interferon together with different concentrations (0.1 μM, 1 μM, 10 μM, 100 μM and 1000 μM) of Pal-hexapeptide. Gamma interferon plus aminoguanidine (10 mg/mL) was used as positive control. The amount of NO production was detected by Griess reaction. Nitric oxide readily oxides to nitrite in aqueous medium, and this reaction was measured as nitrite accumulation in the medium. […] The optical density of the wells were read using a Tibertek Mutiskan (MCC microplate reader at a wavelength of 540 nm, subtracting the absorbance at a reference wavelength of 620 nm.) A printout of the absorbance values was generated by the plate reader, and data were entered into an EXCEL spreadsheet for analysis. The average absorbance and standard deviations were expressed as percent of control absorbances.

CCCCCCCCCCCCCCCC(=O)N[C@@H](Cc1ccccc1)C(=O)N[C@@H](CO)C(=O)N[C@@H](CCCNC(=N)N)C(=O)N[C@@H](Cc1ccc(O)cc1)C(=O)N[C@@H](C)C(=O)N[C@@H](CCCNC(=N)N)C(=O)O [Pal 6 mer, Pal-FSRYAR] (Palmitoyl-FSRYAR-OH; C-terminus assumed)
nitric oxide production induced by Gamma-interferon, % of the control (0.1 μM): 92% | nitric oxide production induced by Gamma-interferon, % of the control (1 μM): 72% | nitric oxide production induced by Gamma-interferon, % of the control (10 μM): 57% | nitric oxide production induced by Gamma-interferon, % of the control (100 μM): 24% | nitric oxide production induced by Gamma-interferon, % of the control (1000 μM): 31%
